Values quoted from earlier work as cited in PMC11258229 (Scientific Reports, 2024).

Experiments:
[1] = high permeability and low solubility

For `CC[C@@H]([C@H](C)O)n1ncn(-c2ccc(N3CCN(c4ccc(OC[C@@H]5CO[C@@](Cn6cncn6)(c6ccc(F)cc6F)C5)cc4)CC3)cc2)c1=O` [Posaconazole], the “half-life (T1/2)” value is listed as “twenty to sixty six”, the “mean T1/2” value is listed as “thirty five” and the “renal clearance, share of the total conjugate oral dosage” value is listed as “around 13%”. For the same compound, the “biopharmaceutical classification system category” value [1] was “class II”.
